Numbers after ± are expanded uncertainties.
Details: Liquid, Vibrating tube method

Compound: CCn1cc[n+](C)c1.F[B-](F)(F)F [1-ethyl-3-methylimidazolium tetrafluoroborate]
- mass density (293.15 K, 101.33 kPa): 1283.53 ± 1.5 kg/m3
- mass density (298.15 K, 101.33 kPa): 1279.7 ± 1.5 kg/m3
- mass density (303.15 K, 101.33 kPa): 1275.89 ± 1.5 kg/m3
- mass density (313.15 K, 101.33 kPa): 1268.33 ± 1.4 kg/m3
- mass density (313.15 K, 503 kPa): 1268.82 ± 1.4 kg/m3
- mass density (313.15 K, 999 kPa): 1269.09 ± 1.4 kg/m3
- mass density (313.15 K, 2001 kPa): 1269.74 ± 1.5 kg/m3
- mass density (313.15 K, 2998 kPa): 1270.26 ± 1.5 kg/m3
- mass density (313.15 K, 4000 kPa): 1270.93 ± 1.5 kg/m3
- mass density (313.15 K, 5002 kPa): 1271.59 ± 1.5 kg/m3
- mass density (313.15 K, 6000 kPa): 1272.21 ± 1.5 kg/m3
- mass density (323.15 K, 101.33 kPa): 1260.85 ± 1.4 kg/m3
- mass density (333.15 K, 101.33 kPa): 1253.45 ± 1.4 kg/m3
- mass density (343.15 K, 101.33 kPa): 1246.11 ± 1.4 kg/m3
- mass density (353.15 K, 101.33 kPa): 1238.83 ± 1.4 kg/m3
- mass density (363.15 K, 101.33 kPa): 1231.6 ± 1.3 kg/m3

Compound: CCn1cc[n+](C)c1.O=S(=O)([N-]S(=O)(=O)C(F)(F)C(F)(F)F)C(F)(F)C(F)(F)F
- mass density (273.15 K, 101.33 kPa): 1621.64 ± 5.1 kg/m3
- mass density (283.15 K, 101.33 kPa): 1610.4 ± 5.1 kg/m3
- mass density (293.15 K, 101.33 kPa): 1599.21 ± 5 kg/m3
- mass density (298.15 K, 101.33 kPa): 1593.65 ± 5 kg/m3
- mass density (303.15 K, 101.33 kPa): 1588.12 ± 4.9 kg/m3
- mass density (313.15 K, 101.33 kPa): 1577.13 ± 4.9 kg/m3
- mass density (313.15 K, 497 kPa): 1577.9 ± 4.9 kg/m3
- mass density (313.15 K, 1001 kPa): 1578.46 ± 4.9 kg/m3
- mass density (313.15 K, 1999 kPa): 1579.57 ± 4.9 kg/m3
- mass density (313.15 K, 3003 kPa): 1580.67 ± 5 kg/m3
- mass density (313.15 K, 4007 kPa): 1581.77 ± 5 kg/m3
- mass density (313.15 K, 5000 kPa): 1582.86 ± 5 kg/m3
- mass density (313.15 K, 6004 kPa): 1583.94 ± 5 kg/m3
- mass density (323.15 K, 101.33 kPa): 1566.23 ± 4.8 kg/m3
- mass density (333.15 K, 101.33 kPa): 1555.4 ± 4.7 kg/m3
- mass density (343.15 K, 101.33 kPa): 1544.63 ± 4.7 kg/m3
- mass density (353.15 K, 101.33 kPa): 1533.92 ± 4.6 kg/m3
- mass density (363.15 K, 101.33 kPa): 1523.27 ± 4.5 kg/m3

Compound: CCn1cc[n+](C)c1.O=S(=O)([N-]S(=O)(=O)C(F)(F)F)C(F)(F)F
- mass density (273.15 K, 101.33 kPa): 1544.43 ± 4.7 kg/m3
- mass density (283.15 K, 101.33 kPa): 1534.1 ± 4.6 kg/m3
- mass density (293.15 K, 101.33 kPa): 1523.89 ± 4.5 kg/m3
- mass density (298.15 K, 101.33 kPa): 1518.83 ± 4.5 kg/m3
- mass density (303.15 K, 101.33 kPa): 1513.78 ± 4.5 kg/m3
- mass density (313.15 K, 101.33 kPa): 1503.75 ± 4.4 kg/m3
- mass density (313.15 K, 508 kPa): 1504.27 ± 4.4 kg/m3
- mass density (313.15 K, 1002 kPa): 1504.75 ± 4.4 kg/m3
- mass density (313.15 K, 1999 kPa): 1505.7 ± 4.5 kg/m3
- mass density (313.15 K, 3001 kPa): 1506.65 ± 4.5 kg/m3
- mass density (313.15 K, 3997 kPa): 1507.6 ± 4.5 kg/m3
- mass density (313.15 K, 5001 kPa): 1508.55 ± 4.5 kg/m3
- mass density (313.15 K, 6005 kPa): 1509.49 ± 4.6 kg/m3
- mass density (323.15 K, 101.33 kPa): 1493.8 ± 4.4 kg/m3
- mass density (333.15 K, 101.33 kPa): 1483.92 ± 4.3 kg/m3
- mass density (343.15 K, 101.33 kPa): 1474.1 ± 4.2 kg/m3
- mass density (353.15 K, 101.33 kPa): 1464.36 ± 4.2 kg/m3
- mass density (363.15 K, 101.33 kPa): 1454.67 ± 4.1 kg/m3

Compound: CCn1cc[n+](C)c1.O=S(=O)([O-])C(F)(F)C(F)(F)C(F)(F)C(F)(F)F
- mass density (298.15 K, 101.33 kPa): 1546.54 ± 4.7 kg/m3
- mass density (303.15 K, 101.33 kPa): 1541.24 ± 4.6 kg/m3
- mass density (313.15 K, 101.33 kPa): 1530.71 ± 4.6 kg/m3
- mass density (313.15 K, 510 kPa): 1530.15 ± 4.6 kg/m3
- mass density (313.15 K, 1007 kPa): 1530.64 ± 4.6 kg/m3
- mass density (313.15 K, 2007 kPa): 1531.73 ± 4.6 kg/m3
- mass density (313.15 K, 3005 kPa): 1532.82 ± 4.7 kg/m3
- mass density (313.15 K, 4004 kPa): 1533.91 ± 4.7 kg/m3
- mass density (313.15 K, 5000 kPa): 1534.99 ± 4.7 kg/m3
- mass density (313.15 K, 5999 kPa): 1536.06 ± 4.7 kg/m3
- mass density (323.15 K, 101.33 kPa): 1520.31 ± 4.5 kg/m3
- mass density (333.15 K, 101.33 kPa): 1510.01 ± 4.5 kg/m3
- mass density (343.15 K, 101.33 kPa): 1499.78 ± 4.4 kg/m3
- mass density (353.15 K, 101.33 kPa): 1489.64 ± 4.3 kg/m3
- mass density (363.15 K, 101.33 kPa): 1479.58 ± 4.3 kg/m3
